Assay results: PubChem BioAssay AID1963980 (Molecular Pharmacology Branch, DTP, NCI, 2024)

Tested on: 475296-252-R-J1-PDC spheroid viability
Test: Anticancer human tumor 475296-252-R-J1-PDC patient-derived rectal carcinoma cell line growth inhibition [PI3K]
Conditions: second compound 0.01 µM; first compound 1 µM; hits give low values; spheroids with HUVEC and MSC
Outline: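 Three cell types, namely tumor cells, endothelial cells and mesenchymal stem cells, formed each spheroid. Combinations with four PI3K inhibitors were screened at clinically achievable concentrations decreasing by half-log, and spheroid viability was recorded.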
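Further: spheroids exposed to agents for seven days before readout.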

Going from `CCN1CCN(Cc2ccc(Nc3ncc(F)c(-c4cc(F)c5nc(C)n(C(C)C)c5c4)n3)nc2)CC1` + COc1c(OCCCN2CCOCC2)ccc2c3n(c(=NC(=O)c4cnc(N)nc4)nc12)CCN3 to `Cn1nccc1Nc1nccc(-c2ccn(C(CO)c3ccc(Cl)c(F)c3)c(=O)c2)n1` (stereo unspecified) + COc1c(OCCCN2CCOCC2)ccc2c3n(c(=NC(=O)c4cnc(N)nc4)nc12)CCN3, the viability, T/C rises from 76.4% to 85.7%.

`Cn1ncc(Cl)c1-c1cc(C(=O)NC(CN)Cc2cccc(F)c2)sc1Cl` (stereo unspecified) + COc1c(OCCCN2CCOCC2)ccc2c3n(c(=NC(=O)c4cnc(N)nc4)nc12)CCN3 gave a viability, T/C of 58.5%.

Same assay, conditions: second compound 0.01 µM; first compound 3.16 µM; hits give low values; spheroids with HUVEC and MSC

Compared with `CC(C)NCC(C(=O)N1CCN(c2ncnc3c2C(C)CC3O)CC1)c1ccc(Cl)cc1` (stereo unspecified) + COc1c(OCCCN2CCOCC2)ccc2c3n(c(=NC(=O)c4cnc(N)nc4)nc12)CCN3, `Cn1nccc1Nc1nccc(-c2ccn(C(CO)c3ccc(Cl)c(F)c3)c(=O)c2)n1` (stereo unspecified) + COc1c(OCCCN2CCOCC2)ccc2c3n(c(=NC(=O)c4cnc(N)nc4)nc12)CCN3 is higher in viability, T/C: 65.6% for the first, 70.6% for the second.

For `Cn1ncc(Cl)c1-c1cc(C(=O)NC(CN)Cc2cccc(F)c2)sc1Cl` (stereo unspecified) + COc1c(OCCCN2CCOCC2)ccc2c3n(c(=NC(=O)c4cnc(N)nc4)nc12)CCN3, the viability, T/C was 59.4%.

Same assay, conditions: second compound 0.01 µM; first compound 10 µM; hits give low values; spheroids with HUVEC and MSC

Going from `CC(C)NCC(C(=O)N1CCN(c2ncnc3c2C(C)CC3O)CC1)c1ccc(Cl)cc1` (stereo unspecified) + COc1c(OCCCN2CCOCC2)ccc2c3n(c(=NC(=O)c4cnc(N)nc4)nc12)CCN3 to `Cn1nccc1Nc1nccc(-c2ccn(C(CO)c3ccc(Cl)c(F)c3)c(=O)c2)n1` (stereo unspecified) + COc1c(OCCCN2CCOCC2)ccc2c3n(c(=NC(=O)c4cnc(N)nc4)nc12)CCN3, the viability, T/C falls from 60% to 50.5%.

Work on `Cn1ncc(Cl)c1-c1cc(C(=O)NC(CN)Cc2cccc(F)c2)sc1Cl` (stereo unspecified) + COc1c(OCCCN2CCOCC2)ccc2c3n(c(=NC(=O)c4cnc(N)nc4)nc12)CCN3 yielded a viability, T/C of 59.2%.

Same assay, conditions: second compound 0.0316 µM; first compound 0.00316 µM; hits give low values; spheroids with HUVEC and MSC

For `CCN1CCN(Cc2ccc(Nc3ncc(F)c(-c4cc(F)c5nc(C)n(C(C)C)c5c4)n3)nc2)CC1` + COc1c(OCCCN2CCOCC2)ccc2c3n(c(=NC(=O)c4cnc(N)nc4)nc12)CCN3, the viability, T/C was 83.8%.

Same assay, conditions: second compound 0.0316 µM; first compound 0.01 µM; hits give low values; spheroids with HUVEC and MSC

Compound `CCN1CCN(Cc2ccc(Nc3ncc(F)c(-c4cc(F)c5nc(C)n(C(C)C)c5c4)n3)nc2)CC1` + COc1c(OCCCN2CCOCC2)ccc2c3n(c(=NC(=O)c4cnc(N)nc4)nc12)CCN3 has a viability, T/C of 92.5%.

Same assay, conditions: second compound 0.0316 µM; first compound 0.0316 µM; hits give low values; spheroids with HUVEC and MSC

Compared with `CC(C)NCC(C(=O)N1CCN(c2ncnc3c2C(C)CC3O)CC1)c1ccc(Cl)cc1` (stereo unspecified) + COc1c(OCCCN2CCOCC2)ccc2c3n(c(=NC(=O)c4cnc(N)nc4)nc12)CCN3, `CCN1CCN(Cc2ccc(Nc3ncc(F)c(-c4cc(F)c5nc(C)n(C(C)C)c5c4)n3)nc2)CC1` + COc1c(OCCCN2CCOCC2)ccc2c3n(c(=NC(=O)c4cnc(N)nc4)nc12)CCN3 is lower in viability, T/C: 108% for the first, 99.2% for the second.

Going from `Cn1ncc(Cl)c1-c1cc(C(=O)NC(CN)Cc2cccc(F)c2)sc1Cl` (stereo unspecified) + COc1c(OCCCN2CCOCC2)ccc2c3n(c(=NC(=O)c4cnc(N)nc4)nc12)CCN3 to `Cn1nccc1Nc1nccc(-c2ccn(C(CO)c3ccc(Cl)c(F)c3)c(=O)c2)n1` (stereo unspecified) + COc1c(OCCCN2CCOCC2)ccc2c3n(c(=NC(=O)c4cnc(N)nc4)nc12)CCN3, the viability, T/C rises from 82.9% to 92.5%.

Same assay, conditions: second compound 0.0316 µM; first compound 0.1 µM; hits give low values; spheroids with HUVEC and MSC

Compared with `CC(C)NCC(C(=O)N1CCN(c2ncnc3c2C(C)CC3O)CC1)c1ccc(Cl)cc1` (stereo unspecified) + COc1c(OCCCN2CCOCC2)ccc2c3n(c(=NC(=O)c4cnc(N)nc4)nc12)CCN3, `CCN1CCN(Cc2ccc(Nc3ncc(F)c(-c4cc(F)c5nc(C)n(C(C)C)c5c4)n3)nc2)CC1` + COc1c(OCCCN2CCOCC2)ccc2c3n(c(=NC(=O)c4cnc(N)nc4)nc12)CCN3 is lower in viability, T/C: 102% for the first, 95.1% for the second.

First: Cn1ncc(Cl)c1-c1cc(C(=O)NC(CN)Cc2cccc(F)c2)sc1Cl (stereo unspecified) + COc1c(OCCCN2CCOCC2)ccc2c3n(c(=NC(=O)c4cnc(N)nc4)nc12)CCN3
Second: Cn1nccc1Nc1nccc(-c2ccn(C(CO)c3ccc(Cl)c(F)c3)c(=O)c2)n1 (stereo unspecified) + COc1c(OCCCN2CCOCC2)ccc2c3n(c(=NC(=O)c4cnc(N)nc4)nc12)CCN3
The viability, T/C of the first is lower: 89.4% for the first, 89.7% for the second.

Same assay, conditions: second compound 0.0316 µM; first compound 0.316 µM; hits give low values; spheroids with HUVEC and MSC

Going from `CC(C)NCC(C(=O)N1CCN(c2ncnc3c2C(C)CC3O)CC1)c1ccc(Cl)cc1` (stereo unspecified) + COc1c(OCCCN2CCOCC2)ccc2c3n(c(=NC(=O)c4cnc(N)nc4)nc12)CCN3 to `CCN1CCN(Cc2ccc(Nc3ncc(F)c(-c4cc(F)c5nc(C)n(C(C)C)c5c4)n3)nc2)CC1` + COc1c(OCCCN2CCOCC2)ccc2c3n(c(=NC(=O)c4cnc(N)nc4)nc12)CCN3, the viability, T/C falls from 87.2% to 86.9%.
